This is an account of results in US11396503B2, “Sulfonyl substituted bicyclic compound which acts as ROR inhibitor” (CHIA TAI TIANQING PHARMACEUTICAL GROUP CO., LTD, priority 2017, dated 2022).

By EC50 is commonly meant the concentration giving half of the maximal effect.

This assay addresses T1, hRORγt (Homo sapiens, UniProt P51449).
T1 construct: expressed in transfected cells; host or cells: CHO-S (Chinese hamster ovary cells, Invitrogen R80007), transiently transfected with pM-hRORγt and pG5-luc
T1 sequence (P51449 1-497 isoform P51449-2): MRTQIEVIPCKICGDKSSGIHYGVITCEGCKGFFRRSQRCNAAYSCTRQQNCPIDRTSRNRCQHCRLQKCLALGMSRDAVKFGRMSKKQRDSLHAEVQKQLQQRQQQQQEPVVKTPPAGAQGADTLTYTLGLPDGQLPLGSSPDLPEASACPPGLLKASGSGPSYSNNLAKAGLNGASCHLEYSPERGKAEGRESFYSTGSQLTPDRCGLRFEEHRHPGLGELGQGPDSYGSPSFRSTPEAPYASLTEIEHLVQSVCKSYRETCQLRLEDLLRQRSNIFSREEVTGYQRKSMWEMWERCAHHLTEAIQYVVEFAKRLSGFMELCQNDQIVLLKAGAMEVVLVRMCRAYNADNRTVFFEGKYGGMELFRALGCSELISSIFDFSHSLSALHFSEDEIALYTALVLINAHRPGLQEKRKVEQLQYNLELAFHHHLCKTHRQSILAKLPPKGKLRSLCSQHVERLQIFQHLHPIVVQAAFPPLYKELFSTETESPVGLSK
As to the kind of experiment: Luciferase assay (reporter gene, recombinant plasmid hRORγt). Type of assay: cell-based. As to conditions: CHO-S cells transfected with pM-hRORγt and pG5-luc; overnight culture with compound; ONE-Glo luciferase readout; read-out: RORgt EC50. The source says: This assay method used luciferase as a reporter gene to detect the expression of cells transfected with a gene recombinant plasmid at gene transcription level, wherein the recombinant plasmid was constructed by the promoter of a target gene and a luciferase gene. The experiment was primarily related to the transfection of the recombinant plasmid hRORγt (“RORgt”).
I. Reagents and Materials:
1. Cells: Chinese hamster ovary cells (CHO—S, Invitrogen, Cat #R80007), suspension-cultured in CD-CHO culture medium containing 8 mM L-glutamine and 1×HT.
a) Luciferase reporter gene plasmid pG5-luc: reporter plasmid (Promega).
b) Target gene plasmid pM-hRORγt: human RORgamma.
4. Transfection reagent: TransIT-CHO transfection kit (Minis Bio Co.) containing Trans-It reagent and Mojo reagent (Minis, MIR2170).
7. Luciferase kit: (Promega ONE-Glo, 100 ml, Catalog #E6120): containing luciferase substrate (Coenzyme A, ATP and luciferin) and a reaction buffer.
II. Specific Experimental Steps
1. Cell seeding: 18 to 24 h before transfection, a 125 mL shake flask was charged with CHO—S cells having a concentration of 0.5×10^6 cells/mL to 0.6×10^6 cells/mL, and CD-CHO culture medium (the culture medium only contained L-glutamine and an HT supplement) was added thereto to a final volume of 18 mL. The shake flask was placed on a shaker, and the cells were passaged overnight under a condition of 120 rpm, 37° C. and 8% CO2.
2. Cell transfection: At this time, the cell concentration of the above-mentioned solution should be 1.2×10^6 cells/mL to 1.5×10^6 cells/mL. CD-CHO culture medium (containing L-glutamine and an HT supplement) was used for dilution until the cell concentration reached 1×10^6 cells/mL.
B. Preparation of transfection reagent (TransIT-CHO: Mojo: DNA complex), which was formulated immediately before transfection.
1. Trans-IT reagent was warmed to room temperature in advance and shaken to be uniformly mixed before use.
2. Preparation for DNA transfection: the following reagents were mixed in a 1.5 mL sterile centrifuge tube:
27 μg of luciferase reporter gene plasmid pG5-luc: 27 μL, 1 mg/mL solution,
0.75 μg of the expression plasmid of the target gene (pM-hRORγt, 7.5 μL, 0.1 mg/mL solution).
3. The following reagents were charged into a 15 mL sterile centrifuge tube:
83 μL of TransIT-CHO reagent
the DNA complex prepared in step 2
4. The mixture was mixed well and placed at room temperature for 5 min.
5. 13.9 μL of Mojo reagent was charged into a sterile centrifuge tube, mixed slightly, and placed at room temperature for 20 min to form a transfection complex.
1. A 125 mL shake flask was charged with the transfection complex prepared in step B dropwise while being shaken slowly.
2. The cells were cultured for 4 h in a shaker under a condition of 37° C. and 8% carbon dioxide.
3. After 4 h, the cells were transferred to a 50 mL sterile centrifuge tube, centrifuged at 1200 rpm for 4 min, and the supernatant was aspirated.
4. The cells were re-suspended in 6 mL of a freezing medium (CD-CHO, L-glutamine, HT supplement, and 10% DMSO), and the cell density should be 3×10^6 cells/ml at this time.
5. The mixture was dispensed into 12 tubes with 0.5 mL in each tube. The tubes were placed in a refrigerator at −80° C. to be slowly frozen overnight, and then were transferred into liquid nitrogen for long-term storage.
D. Luciferase activity assay (96-well flat plate)
1. The cells were thawed at 37° C.
2. The cells (1.5×10^6 cells/0.5 mL) were diluted with 2 mL of freshly formulated culture medium (CD-CHO, L-glutamine and an HT supplement) to a volume of 2.5 mL, and then were transferred to a 15 mL sterile centrifuge tube.
3. Cell counting: If the cells were completely viable, a concentration of 6×10^5 cells/mL should be achieved. […] If necessary, the cells were diluted with culture medium.
4. Cell seeding: 100 μl cells (4×10^4 cells) were added to each well.
(In general: Reporter assays use an easily measured gene product as a stand-in for the process of interest.)
For `CC[C@H]1CCc2cc(C(C)C)ccc2N1S(=O)(=O)c1ccc(OCC2CCOCC2)c(CO)c1`, the EC50 was determined as 6800 pM.

Regarding `CCc1ccc2c(c1F)CCC(CC)N2S(=O)(=O)c1ccc(OCC2CCOCC2)c(CO)c1` (centres unmarked), the EC50 was 13600 pM.

Turning to `CCc1ccc2c(c1)CCC(C(F)(F)F)N2S(=O)(=O)c1ccc(OCC2CCOCC2)c(CO)c1` (centres unmarked), the EC50 stood at 23000 pM.

As to `CCc1ccc2c(c1)CCC(CC)N2S(=O)(=O)c1ccc(OCC2CCOCC2)c(S(N)(=O)=O)c1` (centres unmarked), the EC50 was 576000 pM.

As for `CC[C@@H]1CCc2cc(C3CCC3)ccc2N1S(=O)(=O)c1ccc(OCC2CCOCC2)c(CO)c1`, the EC50 came out at 5200 pM.
